From US12037324B2, “Biarylmethyl heterocycles” (Université de Montréal, priority 2016, dated 2024)

Tests used:
AGTR1 = molecular target: T1, AGTR1 (Homo sapiens, UniProt P30556); assay: DiscoveRx β-arrestin2 recruitment assay (enzyme complementation, Pathunter CHO-K1 AGTR1 β-arrestin cell line); type: cell-based; details: DiscoveRx β-arrestin2 recruitment
T1 construct: host or cells: Pathunter CHO-K1 AGTR1 β-arrestin cell line (CHO-K1)
T1 sequence (P30556 1-359): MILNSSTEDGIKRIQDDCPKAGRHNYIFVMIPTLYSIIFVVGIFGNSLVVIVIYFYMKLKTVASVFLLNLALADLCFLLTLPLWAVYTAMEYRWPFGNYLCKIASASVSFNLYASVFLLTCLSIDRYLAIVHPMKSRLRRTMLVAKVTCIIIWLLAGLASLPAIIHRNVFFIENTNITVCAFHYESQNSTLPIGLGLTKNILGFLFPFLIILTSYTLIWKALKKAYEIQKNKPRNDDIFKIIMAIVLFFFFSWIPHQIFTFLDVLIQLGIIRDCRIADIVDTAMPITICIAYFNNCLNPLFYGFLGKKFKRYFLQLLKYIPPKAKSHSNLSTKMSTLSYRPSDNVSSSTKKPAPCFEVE
Method in brief: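 Chemiluminescent enzyme-complementation read-out of β-arrestin2 recruitment to AGTR1 in engineered CHO-K1 cells after 90 min compound exposure at 37° C. Values are 4-parameter logistic EC50s in agonist mode, IC50s in antagonist mode, with efficacy relative to the maximal All response.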

hAT1R [1] = molecular target: T2, hAT1R (Homo sapiens, UniProt P30556); assay: BRET β-arrestin2 biosensor assay, higher receptor expression (hAT1R 5 ng/well), HEK293 cells; type: cell-based; details: for EC50: High AT1R Expression
T2 sequence (P30556 1-359): T1 sequence (P30556 1-359)

hAT1R [2] = molecular target: T2, hAT1R; assay: BRET Gq biosensor assay, agonist response, HEK293 cells; type: cell-based; details: section of the 42nd table directly before the BRET P63 section
Method in brief: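 Agonist EC50 derived from a 4-parameter fit of BRET2 ratio (GFP 515 nm/Rluc 410 nm), scaled between unstimulated control and maximal AngII response. Readings taken 5 min after compound addition at room temperature, with 2 μM coelenterazine, in HEK293 cells expressing hAT1R, Gαq-Rluc, Gβ1 and GFP-Gγ1 (transfected two days earlier).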

hAT1R [3] = molecular target: T2, hAT1R; assay: cell-based; details: agonist mode; for EC50: read-out: BRET P63 EC50

Compound: CCCCC(=O)N(Cc1ccc(-c2cc(-c3ccccn3)ccc2-c2nn[nH]n2)cc1)C1(C(=O)O)CCCCC1 [Example 293, 1-(N-((5′-(Pyridin-2-yl)-2′-(2H-tetrazol-5-yl)-[1,1′-biphenyl]-4-yl)methyl)pentanamido)cyclohexanecarboxylic acid]
- EC50 (AGTR1): 0.187 µM
- DiscoveRx β-arrestin2 Ymax (%) (AGTR1; maximal response): 40.4%
- BRET β-Arrestin2 High AT1R Expression Ymax (%) (hAT1R [1]): 70.2%
- EC50 (hAT1R [1]): 0.136 µM
- EC50 (hAT1R [2]): 1.24 µM
- EC50 (hAT1R [3]): > 100 µM

Compound: CCCCC(=O)N(Cc1ccc(-c2cc(-c3cccc(C)n3)ccc2-c2nn[nH]n2)cc1)C1(C(=O)O)CCCCC1 [Example 294]
- EC50 (AGTR1): 0.0873 µM
- DiscoveRx β-arrestin2 Ymax (%) (AGTR1; maximal response): 28.9%
- BRET β-Arrestin2 High AT1R Expression Ymax (%) (hAT1R [1]): 24.7%
- EC50 (hAT1R [1]): 0.15 µM
- EC50 (hAT1R [2]): 0.427 µM
- EC50 (hAT1R [3]): > 100 µM

Compound: CCCCC(=O)N(Cc1ccc(-c2cc(-c3cccc(OC)n3)ccc2-c2nn[nH]n2)cc1)C1(C(=O)O)CCCCC1 [Example 296]
- EC50 (AGTR1): 0.128 µM
- DiscoveRx β-arrestin2 Ymax (%) (AGTR1; maximal response): 41.8%
- BRET β-Arrestin2 High AT1R Expression Ymax (%) (hAT1R [1]): 79.9%
- EC50 (hAT1R [1]): 0.0688 µM
- EC50 (hAT1R [2]): 0.619 µM
- BRET P63 Ymax (hAT1R [3]): 6.9%
- EC50 (hAT1R [3]): 0.307 µM

Compound: CCCCC(=O)N(Cc1ccc(-c2cc(N3CCCC(C)C3)ccc2-c2nn[nH]n2)cc1)C1(C(=O)O)CCCCC1 (stereo not shown) [Example 297, 1-(N-((5′-(3-methylpiperidin-1-yl)-2′-(2H-tetrazol-5-yl)-[1,1′-biphenyl]-4-yl)methyl)pentanamido)cyclohexanecarboxylic acid]
- EC50 (AGTR1): 0.142 µM
- DiscoveRx β-arrestin2 Ymax (%) (AGTR1; maximal response): 30.5%
- BRET β-Arrestin2 High AT1R Expression Ymax (%) (hAT1R [1]): 74.5%
- EC50 (hAT1R [1]): 0.327 µM
- EC50 (hAT1R [2]): 0.621 µM
- EC50 (hAT1R [3]): > 100 µM

Compound: CCCCC(=O)N(Cc1ccc(-c2cc(-c3ccccc3)ccc2-c2nn[nH]n2)cc1)C1(C(=O)O)CCN(c2ccccc2)CC1 [Example 298, 4-(N-((6′-(2H-Tetrazol-5-yl)-[1,1′:3′,1″-terphenyl]-4-yl)methyl)pentan-amido)-1-phenylpiperidine-4-carboxylic acid]
- EC50 (AGTR1): 0.278 µM
- DiscoveRx β-arrestin2 Ymax (%) (AGTR1; maximal response): 31.3%
- BRET β-Arrestin2 High AT1R Expression Ymax (%) (hAT1R [1]): 68.8%
- EC50 (hAT1R [1]): 0.27 µM
- EC50 (hAT1R [2]): 0.958 µM
- EC50 (hAT1R [3]): > 100 µM

Compound: CCCCc1nc(Cl)c(C(=O)O)n1Cc1ccc(-c2cc(-c3cccc4[nH]ccc34)ccc2-c2nn[nH]n2)cc1 [Example 392, 1-((5′-(1H-indol-4-yl)-2′-(2H-tetrazol-5-yl)-1,1,1′-biphenyll-4-yl)methyl)-2-butyl-4-chloro-1H-imidazole-5-carboxyimc acid]
- EC50 (AGTR1): 0.0452 µM
- DiscoveRx β-arrestin2 Ymax (%) (AGTR1; maximal response): 29.2%
- BRET β-Arrestin2 High AT1R Expression Ymax (%) (hAT1R [1]): 79.1%
- EC50 (hAT1R [1]): 0.0172 µM
- EC50 (hAT1R [2]): 3.32 µM
- EC50 (hAT1R [3]): > 100 µM

Compound: CCCCC(=O)N(Cc1ccc(-c2cc(-c3ccccn3)ccc2-c2nn[nH]n2)cc1)[C@H](C(=O)O)C(C)C [Example 443, (S)-3-Methyl-2-(N-((5′-(pyridin-2-yl)-2′-(2H-tetrazol-5-yl)-[1,1′-biphenyl]-4-yl)methyl)pentanamido)butanoic]
- DiscoveRx β-arrestin2 Ymax (%) (AGTR1): 36.5%
- EC50 (AGTR1): 0.124 µM
- BRET β-Arrestin2 High AT1R Expression Ymax (%) (hAT1R [1]): 83.9%
- EC50 (hAT1R [1]): 0.153 µM
- EC50 (hAT1R [2]): 0.0771 µM
- BRET P63 Ymax (hAT1R [3]): 4.5%
- EC50 (hAT1R [3]): 0.365 µM

Compound: CCCCC(=O)N(Cc1ccc(-c2cc(-c3cccc(C)n3)ccc2-c2nn[nH]n2)cc1)[C@H](C(=O)O)C(C)C [Example 444]
- DiscoveRx β-arrestin2 Ymax (%) (AGTR1): 36.3%
- EC50 (AGTR1): 0.125 µM
- BRET β-Arrestin2 High AT1R Expression Ymax (%) (hAT1R [1]): 46.5%
- EC50 (hAT1R [1]): 0.147 µM
- EC50 (hAT1R [2]): 0.258 µM
- EC50 (hAT1R [3]): > 100 µM

Compound: CCCCC1=NC2(CCCC2)C(=O)N1Cc1ccc(-c2cc(Oc3ccccc3)ccc2-c2nnn[nH]2)cc1 [Example 454, 2-Butyl-3-((5′-phenoxy-2′-(1H-tetrazol-5-yl)-[1,1′-biphenyl]-4-yl)methyl)-1,3-diazaspiro[4.4]non-1-en-4-one]
- DiscoveRx β-arrestin2 Ymax (%) (AGTR1): 11.2%
- EC50 (AGTR1): 0.0227 µM
- BRET β-Arrestin2 High AT1R Expression Ymax (%) (hAT1R [1]): 18.4%
- EC50 (hAT1R [1]): 0.0562 µM
- EC50 (hAT1R [2]): > 100 µM
